Our source for the IC50 values is patent US10421765B2, “Tetrahydropyrido[4,3-d]pyrimidine inhibitors of ATR kinase” (Board of Regents, The University of Texas System, priority 2017, dated 2019).

Test [1] deals with ATR-driven phosphorylation of Chk1 kinase at Serine 345 in HT-29 colorectal adenocarcinoma cells. The test can be described thus: pCHK1 cellular assay (CHK1 p-Ser345 AlphaScreen SureFire). It counts as cell-based. As to conditions: 4-nitroquinoline N-oxide 12 uM, read-out: Cell IC50 (pCHK1 IC50 values). An outline of the steps:
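HT-29 cells seeded overnight, treated with 1:3 serially diluted compound for 90 minutes at 37° C., then 12 uM (final) 4-nitroquinoline N-oxide for 120 minutes. Lysates read for Chk1 p-Ser345 by AlphaScreen SureFire; IC50 from four-parameter logistic fit, normalized to DMSO (max) and 5 uM ATR inhibitor (min).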
In general terms: Alpha assays give light when donor and acceptor beads are brought close together.

A further test addresses ATR/ATRIP complex (Homo sapiens (Human), UniProt Q13535). The test is described as follows: ATR/ATRIP enzymatic assay (Caliper-based). As to conditions: FAM-labeled RAD17 peptide, ATP. It counts as biochemical. The procedure, abridged:
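FLAG-TEV-ATR/His6-ATRIP co-expressed in HEK293 and anti-FLAG purified. Compound preincubated 30 min at 28 °C with enzyme (2x solution 4 nM), then FAM-RAD17 peptide (2x solution 10 uM, 2 μM ATP) added for 6 h at 28 °C; HEPES pH 8, 10 mM MnCl2. Caliper conversion read-out, IC50 from four-parameter fit.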

Where [2] appears, read: Homo sapiens, HT-29, HT-29 cells.
[3] abbreviates: read-out: ATR/ATRIP Enzyme IC50.

Molecules are shown by their SMILES. Like-named read-outs stand apart in the source and are kept apart here.

Sequence of ATR/ATRIP complex (Q13535 whole entry): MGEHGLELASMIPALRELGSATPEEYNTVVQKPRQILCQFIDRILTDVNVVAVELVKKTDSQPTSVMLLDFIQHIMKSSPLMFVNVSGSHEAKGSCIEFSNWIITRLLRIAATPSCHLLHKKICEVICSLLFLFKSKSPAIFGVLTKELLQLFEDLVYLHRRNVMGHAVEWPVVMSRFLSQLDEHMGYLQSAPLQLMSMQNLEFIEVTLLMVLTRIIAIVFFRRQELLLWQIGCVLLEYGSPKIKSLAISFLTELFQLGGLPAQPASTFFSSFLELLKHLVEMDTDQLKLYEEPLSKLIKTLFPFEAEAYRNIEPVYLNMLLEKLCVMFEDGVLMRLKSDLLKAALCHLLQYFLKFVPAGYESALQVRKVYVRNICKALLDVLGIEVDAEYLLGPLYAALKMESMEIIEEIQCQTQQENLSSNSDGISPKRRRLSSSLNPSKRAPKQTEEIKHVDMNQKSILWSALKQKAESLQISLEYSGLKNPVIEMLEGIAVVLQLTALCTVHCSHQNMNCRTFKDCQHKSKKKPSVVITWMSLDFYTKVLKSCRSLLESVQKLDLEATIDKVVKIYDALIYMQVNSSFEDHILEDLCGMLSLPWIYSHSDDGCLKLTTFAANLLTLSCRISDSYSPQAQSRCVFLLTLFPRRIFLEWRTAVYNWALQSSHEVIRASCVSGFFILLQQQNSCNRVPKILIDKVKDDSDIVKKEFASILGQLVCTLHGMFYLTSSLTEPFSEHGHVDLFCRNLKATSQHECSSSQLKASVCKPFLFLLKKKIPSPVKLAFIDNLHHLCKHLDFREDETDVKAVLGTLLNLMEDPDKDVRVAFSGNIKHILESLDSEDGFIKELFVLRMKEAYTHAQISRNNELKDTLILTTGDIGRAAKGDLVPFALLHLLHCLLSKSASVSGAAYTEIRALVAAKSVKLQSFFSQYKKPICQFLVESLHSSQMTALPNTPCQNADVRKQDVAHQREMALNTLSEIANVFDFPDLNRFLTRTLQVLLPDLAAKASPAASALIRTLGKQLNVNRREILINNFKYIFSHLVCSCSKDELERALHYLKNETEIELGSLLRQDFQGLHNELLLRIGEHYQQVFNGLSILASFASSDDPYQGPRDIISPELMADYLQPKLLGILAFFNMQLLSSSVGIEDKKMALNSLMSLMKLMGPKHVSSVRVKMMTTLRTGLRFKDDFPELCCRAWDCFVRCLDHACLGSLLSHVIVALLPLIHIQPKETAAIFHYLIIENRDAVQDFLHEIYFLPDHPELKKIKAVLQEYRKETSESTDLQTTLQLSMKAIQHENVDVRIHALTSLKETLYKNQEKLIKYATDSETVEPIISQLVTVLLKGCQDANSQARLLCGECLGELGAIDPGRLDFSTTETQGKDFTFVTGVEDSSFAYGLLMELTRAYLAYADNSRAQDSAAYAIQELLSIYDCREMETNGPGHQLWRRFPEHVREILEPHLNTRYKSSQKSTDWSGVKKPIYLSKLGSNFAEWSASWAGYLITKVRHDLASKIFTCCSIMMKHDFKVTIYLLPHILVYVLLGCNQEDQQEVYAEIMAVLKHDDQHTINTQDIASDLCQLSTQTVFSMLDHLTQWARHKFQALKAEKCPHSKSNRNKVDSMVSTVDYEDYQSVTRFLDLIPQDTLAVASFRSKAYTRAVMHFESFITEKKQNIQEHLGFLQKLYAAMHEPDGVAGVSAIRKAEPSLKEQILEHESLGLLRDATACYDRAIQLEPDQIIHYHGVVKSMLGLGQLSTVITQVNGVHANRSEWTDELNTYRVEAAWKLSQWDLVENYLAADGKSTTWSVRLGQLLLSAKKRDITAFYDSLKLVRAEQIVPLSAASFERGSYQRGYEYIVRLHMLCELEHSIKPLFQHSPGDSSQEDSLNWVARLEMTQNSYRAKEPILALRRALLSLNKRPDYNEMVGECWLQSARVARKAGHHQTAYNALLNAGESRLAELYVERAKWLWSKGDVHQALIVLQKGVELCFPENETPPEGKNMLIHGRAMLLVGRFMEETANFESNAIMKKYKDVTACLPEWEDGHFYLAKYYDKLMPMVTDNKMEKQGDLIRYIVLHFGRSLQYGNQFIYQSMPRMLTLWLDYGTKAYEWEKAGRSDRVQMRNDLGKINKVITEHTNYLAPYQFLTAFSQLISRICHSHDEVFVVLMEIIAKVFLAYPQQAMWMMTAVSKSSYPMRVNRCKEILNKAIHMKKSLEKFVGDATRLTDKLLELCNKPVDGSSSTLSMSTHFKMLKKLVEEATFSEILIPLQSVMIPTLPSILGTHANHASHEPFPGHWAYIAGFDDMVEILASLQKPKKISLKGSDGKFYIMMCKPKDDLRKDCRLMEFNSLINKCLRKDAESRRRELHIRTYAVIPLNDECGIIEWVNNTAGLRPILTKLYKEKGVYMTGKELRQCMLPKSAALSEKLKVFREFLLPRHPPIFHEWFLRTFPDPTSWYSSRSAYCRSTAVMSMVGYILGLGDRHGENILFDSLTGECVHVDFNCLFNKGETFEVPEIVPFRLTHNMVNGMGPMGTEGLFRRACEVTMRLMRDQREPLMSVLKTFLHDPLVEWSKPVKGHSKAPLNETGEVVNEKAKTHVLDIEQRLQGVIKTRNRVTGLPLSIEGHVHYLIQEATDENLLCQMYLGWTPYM
Sequence of ATR/ATRIP complex (Q8WXE1 whole entry partner): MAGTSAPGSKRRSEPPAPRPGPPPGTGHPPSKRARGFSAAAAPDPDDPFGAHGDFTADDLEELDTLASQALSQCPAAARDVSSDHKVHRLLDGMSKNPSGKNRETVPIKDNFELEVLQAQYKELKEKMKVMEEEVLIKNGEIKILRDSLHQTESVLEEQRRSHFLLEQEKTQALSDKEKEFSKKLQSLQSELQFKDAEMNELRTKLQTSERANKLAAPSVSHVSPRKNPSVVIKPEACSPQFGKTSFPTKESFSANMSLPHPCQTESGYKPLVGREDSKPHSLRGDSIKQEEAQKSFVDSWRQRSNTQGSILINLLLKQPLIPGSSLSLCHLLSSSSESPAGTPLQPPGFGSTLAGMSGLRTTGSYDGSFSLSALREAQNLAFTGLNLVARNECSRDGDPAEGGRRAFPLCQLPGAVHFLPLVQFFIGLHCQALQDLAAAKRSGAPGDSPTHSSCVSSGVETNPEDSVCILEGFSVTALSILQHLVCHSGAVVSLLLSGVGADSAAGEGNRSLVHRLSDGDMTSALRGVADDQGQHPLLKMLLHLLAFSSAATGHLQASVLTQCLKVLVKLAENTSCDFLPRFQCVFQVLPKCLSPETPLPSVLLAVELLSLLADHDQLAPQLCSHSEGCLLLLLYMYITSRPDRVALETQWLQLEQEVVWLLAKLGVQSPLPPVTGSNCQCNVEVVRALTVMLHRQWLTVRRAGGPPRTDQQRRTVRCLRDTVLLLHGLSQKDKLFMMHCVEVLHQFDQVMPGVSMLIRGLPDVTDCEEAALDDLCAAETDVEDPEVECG

Take `C[C@@H]1Cc2ncnc(N3CCC(O)CC3)c2CN1c1cc(Cl)nc2[nH]ccc12` [Example 12, (R)-1-(6-(6-Chloro-1H-pyrrolo[2,3-b]pyridin-4-yl)-7-methyl-5,6,7,8-tetrahydropyrido[4,3-d]pyrimidin-4-yl)piperidin-4-ol]: the IC50 in test [1] (setting [2]) came to 28 nM; on ATR/ATRIP complex (setting [3]) it was 518 nM.
Regarding `C[C@@H]1Cc2ncnc([C@H]3CCN(S(C)(=O)=O)C3)c2CN1c1ccnc2[nH]ccc12` [Example 57b, (R)-7-methyl-4-((S)-1-(methylsulfonyl)pyrrolidin-3-yl)-6-(1H-pyrrolo[2,3b]-pyridin-4-yl)-5,6,7,8-tetrahydropyrido[4,3-d]pyrimidine], the values for the IC50 (in test [1] (HT-29 cells); at ATR/ATRIP complex (setting [3])) were 394 nM and 1470 nM, respectively.
For the molecule `C[C@@H]1Cc2ncnc(C3CN(S(C)(=O)=O)C3)c2CN1c1cc(Cl)nc2[nH]ccc12` [Example 47, (R)-6-(6-Chloro-1H-pyrrolo[2,3-b]pyridin-4-yl)-7-methyl-4-(1-(methylsulfonyl)azetidin-3-yl)-5,6,7,8-tetrahydropyrido[4,3-d]pyrimidine], the IC50 in test [1] (setting [2]) was found to be 30 nM; on ATR/ATRIP complex (setting [3]), 287 nM.
Turning to `C[C@@H]1Cc2ncnc(C3C[C@H]4CC[C@@H](C3)N4S(C)(=O)=O)c2CN1c1cc(Cl)nc2[nH]ccc12` (single isomer, unassigned) [Example 11b], the IC50 in test [1] (HT-29 cells) was 29 nM; on ATR/ATRIP complex (setting [3]) it was 329 nM.
As to `C[C@@H]1Cc2ncnc(N3CC[C@@H](S(C)(=O)=O)C3)c2CN1c1cc(Cl)nc2[nH]ccc12` [Example 87, (R)-6-(6-chloro-1H-pyrrolo[2,3-b]pyridin-4-yl)-7-methyl-4-((R)-3-(methylsulfonyl)-pyrrolidin-1-yl)-5,6,7,8-tetrahydropyrido[4,3-d]-pyrimidine], the IC50 in test [1] (setting [2]) worked out at 20 nM; at ATR/ATRIP complex (setting [3]), 237 nM.
For `C[C@@H]1Cc2ncnc(C3=CCC(NS(C)(=O)=O)CC3)c2CN1c1cc(Cl)nc2[nH]ccc12` (stereo partly drawn) [Example 73, N-(4-((R)-6-(6-chloro-1H-pyrrolo[2,3-b]pyridin-4-yl)-7-methyl-5,6,7,8-tetrahydropyrido[4,3-d]-pyrimidin-4-yl)cyclohex-3-en-1-yl)methane-sulfonamide] the same measures were 18 nM and 111 nM.
On to `C[C@@H]1Cc2ncnc(C3=C[C@@H]4CC[C@H](C3)N4S(C)(=O)=O)c2CN1c1cc(Cl)nc2[nH]ccc12` [Example 60, (R)-6-(6-chloro-1H-pyrrolo[2,3-b]pyridin-4-yl)-7-methyl-4-((1S,5R)-8-(methylsulfonyl)-8-azabicyclo[3.2.1]oct-2-en-3-yl)-5,6,7,8-tetra-hydropyrido[4,3-d]-pyrimidine], for which the IC50 in test [1] (setting [2]) came to 22 nM; at ATR/ATRIP complex (setting [3]) it was 66 nM.
For `C[C@@H]1Cc2ncnc(C3CCN(S(C)(=O)=O)CC3)c2CN1c1cc(OC2CC2)nc2[nH]ccc12` [Example 97, (R)-6-(6-cyclopropoxy-1H-pyrrolo[2,3-b]pyridin-4-yl)-7-methyl-4-(1-(methylsulfonyl)piperidin-4-yl)-5,6,7,8-tetrahydro-pyrido[4,3-d]pyrimidine] the same measures were 13 nM and 93 nM.
As to `C[C@@H]1Cc2ncnc(C3CCN(S(C)(=O)=O)C3)c2CN1c1ccnc2[nH]ccc12` (stereo partly drawn) [Example 17, 1-methanesulfonyl-3-[(7R)-7-methyl-6-{1H-pyrrolo[2,3-b]pyridin-4-yl}-5H,6H,7H,8H-pyrido[4,3-d]pyrimdin-4-yl]pyrrolidine], the IC50 in test [1] (setting [2]) came out at 362 nM; on ATR/ATRIP complex (setting [3]), 936 nM.
For `C[C@@H]1Cc2ncnc([C@@H]3CCN(S(C)(=O)=O)C(C)(C)C3)c2CN1c1ccnc2[nH]ccc12` (single isomer, unassigned) [Example 48a], the figures for the IC50 (in test [1] (setting [2]); on ATR/ATRIP complex (setting [3])) were 758 nM and 3330 nM, respectively.
Turning to `C[C@@H]1Cc2ncnc(N3C[C@H]4CC[C@@H](C3)C4NC(=O)CC(F)(F)F)c2CN1c1cc(Cl)nc2[nH]ccc12` (stereo partly drawn) [Example 26, N-{3-[(7R)-6-{6-chloro-1H-pyrrolo[2,3-b]pyridin-4-yl}-7-methyl-5H,6H,7H,8H-pyrido[4,3-d]pyrimidin-4-yl]-3-aza-bicyclo[3.2.1]octan-8-yl}-3,3-trifluoro-propanamide], the IC50 in test [1] (setting [2]) was 88 nM; at ATR/ATRIP complex (estimated range, read-out: ATR/ATRIP Enzyme IC50 (estimated class)) it was 1000 to 10000 nM.
Turning to `C[C@@H]1Cc2ncnc(N3CC[C@H](S(C)(=O)=O)C3)c2CN1c1cc(Cl)nc2[nH]ccc12` [Example 86, (R)-6-(6-chloro-1H-pyrrolo[2,3-b]pyridin-4-yl)-7-methyl-4-((S)-3-(methylsulfonyl)-pyrrolidin-1-yl)-5,6,7,8-tetrahydropyrido[4,3-d]-pyrimidine], the IC50 worked out at 51 nM in test [1] (setting [2]) and 329 nM on ATR/ATRIP complex (setting [3]).
Take `C[C@@H]1Cc2ncnc(N3CCC(S(C)(=O)=O)CC3)c2CN1c1cc(Cl)nc2[nH]ccc12` [Example 9, (R)-6-(6-Chloro-1H-pyrrolo[2,3-b]pyridin-4-yl)-7-methyl-4-(4-(methylsulfonyl)-piperidin-1-yl)-5,6,7,8-tetrahydropyrido[4,3-d]pyrimidine bis(trifluoroacetate)]: the IC50 in test [1] (setting [2]) stood at 25 nM; on ATR/ATRIP complex (setting [3]), 442 nM.
For `C[C@@H]1Cc2ncnc(C3CCN(S(C)(=O)=O)CC3)c2CN1c1cc(OC2CCC2)nc2[nH]ccc12` [Example 99, (R)-6-(6-cyclobutoxy-1H-pyrrolo[2,3-b]pyridin-4-yl)-7-methyl-4-(1-(methylsulfonyl)piperidin-4-yl)-5,6,7,8-tetrahydro-pyrido[4,3-d]pyrimidine] the same measures were 9 nM and 75 nM.
Consider `CS(=O)(=O)N1CCC(c2ncnc3c2CN(c2ccnc4[nH]ccc24)[C@H](C(F)F)C3)CC1` [Example 53b], for which the figures for the IC50 (in test [1] (HT-29 cells); on ATR/ATRIP complex (setting [3])) were 485 nM and 2420 nM, respectively.
For `C[C@@H]1Cc2ncnc(C3C[C@H]4CC[C@@H](C3)N4S(C)(=O)=O)c2CN1c1cc(Cl)nc2[nH]ccc12` (single isomer, unassigned) [Example 11a] the same measures were 28 nM and 555 nM.
As to `C[C@@H]1Cc2ncnc(N3CC(C#N)C3)c2CN1c1ccnc2[nH]ccc12` [Example 81, (R)-1-(7-methyl-6-(1H-pyrrolo[2,3-b]pyridin-4-yl)-5,6,7,8-tetrahydro-pyrido[4,3-d]pyrimidin-4-yl)azetidine-3-carbonitrile], the IC50 turned out to be 38 nM in test [1] (setting [2]) and 246 nM on ATR/ATRIP complex (setting [3]).
For `CS(=O)(=O)N1CCC(c2ncnc3c2CN(c2ccnc4[nH]ccc24)[C@@H](CF)C3)CC1` [Example 52a, (R)-7-(fluoromethyl)-4-(1-(methylsulfonyl)piperidin-4-yl)-6-(1H-pyrrolo[2,3-b]pyridin-4-yl)-5,6,7,8-tetrahydropyrido[4,3-d]pyrimidine] the same measures were 10000 nM and 30000 nM.
In the case of `COC1CCN(c2ncnc3c2CN(c2cc(Cl)nc4[nH]ccc24)[C@H](C)C3)CC1` [Example 68, (R)-6-(6-chloro-1H-pyrrolo[2,3-b]pyridin-4-yl)-4-(4-methoxy-piperidin-1-yl)-7-methyl-5,6,7,8-tetrahydro-pyrido[4,3-d]pyrimidine], the IC50 was 48 nM in test [1] (setting [2]) and 475 nM at ATR/ATRIP complex (setting [3]).
As for `C[C@@H]1Cc2ncnc(N3CCC(S(C)(=O)=O)C3)c2CN1c1cc(Cl)nc2[nH]ccc12` (stereo partly drawn) [Example 41, (7R)-6-(6-chloro-1H-pyrrolo[2,3-b]pyridin-4-yl)-7-methyl-4-(3-(methylsulfonyl)pyrrolidin-1-yl)-5,6,7,8-tetrahydropyrido[4,3-d]pyrimidine], the IC50 was found to be 36 nM in test [1] (setting [2]) and 472 nM on ATR/ATRIP complex (setting [3]).
`C[C@@H]1Cc2ncnc(N3CC(NS(=O)(=O)C4CC4)C3)c2CN1c1ccnc2[nH]ccc12` [Example 85, (R)-N-(1-(7-methyl-6-(1H-pyrrolo[2,3-b]-pyridin-4-yl)-5,6,7,8-tetrahydropyrido[4,3-d]-pyrimidin-4-yl)azetidin-3-yl)cyclopropane-sulfonamide]: the IC50 turned out to be 83 nM in test [1] (setting [2]) and 113 nM on ATR/ATRIP complex (setting [3]).
For `C[C@@H]1Cc2ncnc(N3CCC[C@@H](NS(C)(=O)=O)C3)c2CN1c1cc(Cl)nc2[nH]ccc12` [Example 72, N-((R)-1-((R)-6-(6-chloro-1H-pyrrolo[2,3-b]-pyridin-4-yl)-7-methyl-5,6,7,8-tetrahydropyrido-[4,3-d]pyrimidin-4-yl)-piperidin-3-yl)-methanesulfonamide] the same measures were 119 nM and 715 nM.
For `COc1cc(N2Cc3c(ncnc3C3CCN(S(C)(=O)=O)CC3)C[C@H]2C)c2cc[nH]c2n1` [Example 91, (R)-6-(6-methoxy-1H-pyrrolo[2,3-b]pyridin-4-yl)-7-methyl-4-(1-(methylsulfonyl)-piperidin-4-yl)-5,6,7,8-tetrahydropyrido[4,3-d]-pyrimidine] the same measures were 18 nM and 269 nM.
On to `CNC(=O)[C@@H]1CCCN(c2ncnc3c2CN(c2cc(Cl)nc4[nH]ccc24)[C@H](C)C3)C1` [Example 44, (R)-1-((R)-6-(6-Chloro-1H-pyrrolo[2,3-b]pyridin-4-yl)-7-methyl-5,6,7,8-tetrahydropyrido[4,3-d]pyrimidin-4-yl)-N-methylpiperidine-3-carboxamide], for which the IC50 is 92 nM in test [1] (setting [2]) and 1040 nM on ATR/ATRIP complex (setting [3]).
Take `C[C@@H]1Cc2ncnc(N3CCCC(C#N)C3)c2CN1c1ccnc2[nH]ccc12` (stereo partly drawn) [Example 83, 1-((R)-7-methyl-6-(1H-pyrrolo[2,3-b]pyridin-4-yl)-5,6,7,8-tetrahydro-pyrido[4,3-d]pyrimidin-4-yl)piperidine-3-carbonitrile]: the IC50 in test [1] (setting [2]) is 56 nM; on ATR/ATRIP complex (setting [3]), 364 nM.
